Results taken from EPA's ToxValDB 9.5 (doi:10.2903/j.efsa.2008.169r).
In brackets after ≈: the same amount, converted by molar mass.

Experiments:
[1] = tested on: Canidae; conditions: subchronic; duration: 90 days; oral; Dog Other; organ weight
[2] = tested on: Coturnix coturnix; conditions: mortality; for LD50: acute, oral
[3] = tested on: Oncorhynchus mykiss
[4] = tested on: Apis mellifera; conditions: acute; duration: 48 hours; dermal; mortality
[5] = tested on: Tagia sp.; conditions: acute; duration: 14 days; mortality
[6] = tested on: Daphnia magna; conditions: chronic/long-term, reproduction
[7] = tested on: Rattus norvegicus
[8] = tested on: Aphidius rhopalosiphi; assay: LR50; higher = less toxic; conditions: not reported; mortality

Which results are given for `COCCN(C(=O)CCl)c1c(C)cccc1C` [Dimethachlor]?
NOAEL [1]: 10 mg/kg-day; LD50 ([2]; diet): > 1470 mg/kg-day; LD50 [2]: 524 mg/kg-day; NOEL ([2]; reproduction developmental, duration: 140 days): 102 mg/kg-day; LC50 ([3]; acute, duration: 96 hours, mortality): 3.9 µg/mL (≈ 15.2 µM); NOEC ([3]; chronic/long-term, duration: 21 days, growth): 0.85 mg/L; LD50 [4]: > 200 µg/piece; LC50 [5]: > 70 mg/kg; NOEC ([6]; duration: 21 days): 0.476 mg/L; NOEC ([6]; duration: 22 days): 2.3 mg/L; LD50 ([7]; acute, oral, mortality): 1600 mg/kg-day; NOAEL ([7]; chronic, duration: 2 years, body weight): 11.1 mg/kg-day; NOEL ([7]; chronic, mortality): 20 mg/kg-day; NOAEL ([7]; developmental, development): 50 mg/kg-day; LR50 [8]: 91 g/ha
